Results from US10473647B1, “Peptides for use in treatment and diagnosis of type 1 diabetes” (ImmusanT, Inc., priority 2014, dated 2019).
Non-standard residues stand in square brackets, D forms with d. pGlu = O=C1CC[C@@H](C(=O)O)N1

Legend:
Type in all cases: cell-based, human
[1] = system: whole blood from subjects with T1D and Celiac disease; assay: Whole blood cytokine release assay, IFN-γ (MAGPIX), Example 1; details: for Whole blood IFNg release / Whole blood IFNg release, fold-change over medium only: 10 uM; for IFN-g fold-change / IFN-g fold-change (preproinsulin peptides): individual 17mer 20 μg/mL, blood 6 days after commencing oral gluten challenge
[2] = system: whole blood from subjects with T1D and Celiac disease; assay: Whole blood cytokine release assay, IP-10 (MAGPIX), Example 1; details: for Whole blood IP-10 release / Whole blood IP-10 release, fold-change over medium only: 10 uM
[3] = system: whole blood from subjects with T1D and Celiac disease; assay: Whole blood cytokine release assay, IL-2 (MAGPIX), Example 1; details: for Whole blood IL-2 release / Whole blood IL-2 release, fold-change over medium only: 10 uM; for IL-2 fold-change / IL-2 fold-change (preproinsulin peptides): individual 17mer 20 μg/mL, blood 6 days after commencing oral gluten challenge
[4] = subject 1, day 0 since oral challenge
[5] = subject 1, day 6 since oral challenge
[6] = subject 2, day 0 since oral challenge
[7] = subject 2, day 6 since oral challenge
[8] = subject 6, day 0 since oral challenge
[9] = subject 6, day 6 since oral challenge
[10] = subject 7, day 0 since oral challenge
[11] = subject 7, day 6 since oral challenge
[12] = Subject 1, individual 17mer 20 μg/mL, blood 6 days after commencing oral gluten challenge
[13] = Subject 2, individual 17mer 20 μg/mL, blood 6 days after commencing oral gluten challenge
[14] = Subject 6, individual 17mer 20 μg/mL, blood 6 days after commencing oral gluten challenge
[15] = Subject 7, individual 17mer 20 μg/mL, blood 6 days after commencing oral gluten challenge

**Q.** Which “Whole blood IFNg release” value [1, 4] does the source give for “(pE)QPFPQPEQPFPWQP-NH2 ([pGlu]QPFPQPEQPFPWQP-NH2; SMILES NC(=O)CC[C@H](NC(=O)[C@H](Cc1c[nH]c2ccccc12)NC(=O)[C@@H]1CCCN1C(=O)[C@H](Cc1ccccc1)NC(=O)[C@@H]1CCCN1C(=O)[C@H](CCC(N)=O)NC(=O)[C@H](CCC(=O)O)NC(=O)[C@@H]1CCCN1C(=O)[C@H](CCC(N)=O)NC(=O)[C@@H]1CCCN1C(=O)[C@H](Cc1ccccc1)NC(=O)[C@@H]1CCCN1C(=O)[C@H](CCC(N)=O)NC(=O)[C@@H]1CCC(=O)N1)C(=O)N1CCC[C@H]1C(N)=O) [SEQ ID NO: 43, gluten peptide, reference compound]” here?
**A.** 60 pg/mL

**Q.** And the “Whole blood IFNg release, fold-change over medium only” value (“Whole blood IFNg release, fold-change” below) [1, 4]?
**A.** 1.09

**Q.** What about the “Whole blood IFNg release” value [1, 5] of the same substance?
**A.** 62 pg/mL

**Q.** And the “Whole blood IFNg release, fold-change” value [1, 5]?
**A.** 0.95

**Q.** What about the “Whole blood IFNg release” value [1, 6] of the same substance?
**A.** 4.5 pg/mL

**Q.** And the “Whole blood IFNg release, fold-change” value [1, 6]?
**A.** 1.19

**Q.** What about the “Whole blood IFNg release” value [1, 7] of the same substance?
**A.** 6.4 pg/mL

**Q.** And the “Whole blood IFNg release, fold-change” value [1, 7]?
**A.** 1.32

**Q.** What about the “Whole blood IFNg release” value [1, 8] of the same substance?
**A.** 94 pg/mL

**Q.** And the “Whole blood IFNg release, fold-change” value [1, 8]?
**A.** 0.98

**Q.** What about the “Whole blood IFNg release” value [1, 9] of the same substance?
**A.** 258 pg/mL

**Q.** And the “Whole blood IFNg release, fold-change” value [1, 9]?
**A.** 2.63

**Q.** And the “Whole blood IFNg release” value [1, 10]?
**A.** 158 pg/mL

**Q.** What about the “Whole blood IFNg release, fold-change” value [1, 10] of the same substance?
**A.** 0.66

**Q.** What about the “Whole blood IFNg release” value [1, 11] of the same substance?
**A.** 150 pg/mL

**Q.** And the “Whole blood IFNg release, fold-change” value [1, 11]?
**A.** 1.00

**Q.** And the “Whole blood IP-10 release” value [2, 4]?
**A.** 218 pg/mL

**Q.** What about the “Whole blood IP-10 release, fold-change over medium only” value (“Whole blood IP-10 release, fold-change” for short) [2, 4] of the same substance?
**A.** 0.82

**Q.** And the “Whole blood IP-10 release” value [2, 5]?
**A.** 501 pg/mL

**Q.** And the “Whole blood IP-10 release, fold-change” value [2, 5]?
**A.** 1.49

**Q.** What about the “Whole blood IP-10 release” value [2, 6] of the same substance?
**A.** 376 pg/mL

**Q.** What about the “Whole blood IP-10 release, fold-change” value [2, 6] of the same substance?
**A.** 1.42

**Q.** And the “Whole blood IP-10 release” value [2, 7]?
**A.** 1140 pg/mL

**Q.** And the “Whole blood IP-10 release, fold-change” value [2, 7]?
**A.** 3.65

**Q.** What about the “Whole blood IP-10 release” value [2, 8] of the same substance?
**A.** 1934 pg/mL

**Q.** And the “Whole blood IP-10 release, fold-change” value [2, 8]?
**A.** 6.98

**Q.** What about the “Whole blood IP-10 release” value [2, 9] of the same substance?
**A.** 10000 pg/mL

**Q.** And the “Whole blood IP-10 release, fold-change” value [2, 9]?
**A.** 49.76

**Q.** What about the “Whole blood IP-10 release” value [2, 10] of the same substance?
**A.** 900 pg/mL

**Q.** And the “Whole blood IP-10 release, fold-change” value [2, 10]?
**A.** 1.21

**Q.** And the “Whole blood IP-10 release” value [2, 11]?
**A.** 10000 pg/mL

**Q.** And the “Whole blood IP-10 release, fold-change” value [2, 11]?
**A.** 11.21

**Q.** What about the “Whole blood IL-2 release” value [3, 4] of the same substance?
**A.** 3.2 pg/mL

**Q.** And the “Whole blood IL-2 release, fold-change over medium only” value (shortened to “Whole blood IL-2 release, fold-change”) [3, 4]?
**A.** 1.00

**Q.** What about the “Whole blood IL-2 release” value [3, 5] of the same substance?
**A.** 3.2 pg/mL

**Q.** What about the “Whole blood IL-2 release, fold-change” value [3, 5] of the same substance?
**A.** 1.00

**Q.** What about the “Whole blood IL-2 release” value [3, 6] of the same substance?
**A.** 3.2 pg/mL

**Q.** And the “Whole blood IL-2 release, fold-change” value [3, 6]?
**A.** 1.00

**Q.** And the “Whole blood IL-2 release” value [3, 7]?
**A.** 5.2 pg/mL

**Q.** And the “Whole blood IL-2 release, fold-change” value [3, 7]?
**A.** 1.61

**Q.** And the “Whole blood IL-2 release” value [3, 8]?
**A.** 17.9 pg/mL

**Q.** What about the “Whole blood IL-2 release, fold-change” value [3, 8] of the same substance?
**A.** 3.62

**Q.** And the “Whole blood IL-2 release” value [3, 9]?
**A.** 115. 9 pg/mL

**Q.** And the “Whole blood IL-2 release, fold-change” value [3, 9]?
**A.** 27.33

**Q.** What about the “Whole blood IL-2 release” value [3, 10] of the same substance?
**A.** 41.4 pg/mL

**Q.** And the “Whole blood IL-2 release, fold-change” value [3, 10]?
**A.** 0.66

**Q.** What about the “Whole blood IL-2 release” value [3, 11] of the same substance?
**A.** 55.1 pg/mL

**Q.** And the “Whole blood IL-2 release, fold-change” value [3, 11]?
**A.** 1.31

**Q.** Which results are given for CGSHLVEALYLVCGERG [SEQ ID NO: 53]?
**A.** IFN-g fold-change ([1]; Subject 1): 0.99; IFN-g fold-change (preproinsulin peptides) ([1]; Subject 1): 0.99 fold; IFN-g fold-change ([1]; Subject 2): 1.01; IFN-g fold-change (preproinsulin peptides) ([1]; Subject 2): 1.01 fold; IFN-g fold-change ([1]; Subject 6): 0.74; IFN-g fold-change (preproinsulin peptides) ([1]; Subject 6): 0.74 fold; IFN-g fold-change ([1]; Subject 7): 0.69; IFN-g fold-change (preproinsulin peptides) ([1]; Subject 7): 0.69 fold; IP-10 fold-change [2, 12]: 1.13; IP-10 fold-change (preproinsulin peptides) [2, 12]: 1.13 fold; IP-10 fold-change [2, 13]: 1.50; IP-10 fold-change (preproinsulin peptides) [2, 13]: 1.50 fold; IP-10 fold-change [2, 14]: 3.30; IP-10 fold-change (preproinsulin peptides) [2, 14]: 3.30 fold; IP-10 fold-change [2, 15]: 0.83; IP-10 fold-change (preproinsulin peptides) [2, 15]: 0.83 fold; subjects with elevated whole blood IP-10 release (2-fold greater than medium alone) ([2]; individual 17mer 20 μg/mL, four subjects, blood 6 days after commencing oral gluten challenge): more weakly; IL-2 fold-change ([3]; Subject 1): 1.00; IL-2 fold-change (preproinsulin peptides) ([3]; Subject 1): 1.00 fold; IL-2 fold-change ([3]; Subject 2): 1.00; IL-2 fold-change (preproinsulin peptides) ([3]; Subject 2): 1.00 fold; IL-2 fold-change ([3]; Subject 6): 1.08; IL-2 fold-change (preproinsulin peptides) ([3]; Subject 6): 1.08 fold; IL-2 fold-change ([3]; Subject 7): 0.56; IL-2 fold-change (preproinsulin peptides) ([3]; Subject 7): 0.56 fold

**Q.** Which results are given for EAEVGQVELGGGPGAGS [SEQ ID NO: 56]?
**A.** IFN-g fold-change ([1]; Subject 1): 1.07; IFN-g fold-change (preproinsulin peptides) ([1]; Subject 1): 1.07 fold; IFN-g fold-change ([1]; Subject 2): 0.82; IFN-g fold-change (preproinsulin peptides) ([1]; Subject 2): 0.82 fold; IFN-g fold-change ([1]; Subject 6): 0.97; IFN-g fold-change (preproinsulin peptides) ([1]; Subject 6): 0.97 fold; IFN-g fold-change ([1]; Subject 7): 1.55; IFN-g fold-change (preproinsulin peptides) ([1]; Subject 7): 1.55 fold; IP-10 fold-change [2, 12]: 0.96; IP-10 fold-change (preproinsulin peptides) [2, 12]: 0.96 fold; IP-10 fold-change [2, 13]: 1.05; IP-10 fold-change (preproinsulin peptides) [2, 13]: 1.05 fold; IP-10 fold-change [2, 14]: 0.91; IP-10 fold-change (preproinsulin peptides) [2, 14]: 0.91 fold; IP-10 fold-change [2, 15]: 1.43; IP-10 fold-change (preproinsulin peptides) [2, 15]: 1.43 fold; IL-2 fold-change ([3]; Subject 1): 1.00; IL-2 fold-change (preproinsulin peptides) ([3]; Subject 1): 1.00 fold; IL-2 fold-change ([3]; Subject 2): 1.00; IL-2 fold-change (preproinsulin peptides) ([3]; Subject 2): 1.00 fold; IL-2 fold-change ([3]; Subject 6): 1.00; IL-2 fold-change (preproinsulin peptides) ([3]; Subject 6): 1.00 fold; IL-2 fold-change ([3]; Subject 7): 4.83; IL-2 fold-change (preproinsulin peptides) ([3]; Subject 7): 4.83 fold

**Q.** Which results are given for EDLQVGEVELGGGPGAG [SEQ ID NO: 50]?
**A.** IFN-g fold-change ([1]; Subject 1): 0.93; IFN-g fold-change (preproinsulin peptides) ([1]; Subject 1): 0.93 fold; IFN-g fold-change ([1]; Subject 2): 1.01; IFN-g fold-change (preproinsulin peptides) ([1]; Subject 2): 1.01 fold; IFN-g fold-change ([1]; Subject 6): 0.71; IFN-g fold-change (preproinsulin peptides) ([1]; Subject 6): 0.71 fold; IFN-g fold-change ([1]; Subject 7): 2.06; IFN-g fold-change (preproinsulin peptides) ([1]; Subject 7): 2.06 fold; IP-10 fold-change [2, 12]: 1.14; IP-10 fold-change (preproinsulin peptides) [2, 12]: 1.14 fold; IP-10 fold-change [2, 13]: 0.96; IP-10 fold-change (preproinsulin peptides) [2, 13]: 0.96 fold; IP-10 fold-change [2, 14]: 0.87; IP-10 fold-change (preproinsulin peptides) [2, 14]: 0.87 fold; IP-10 fold-change [2, 15]: 1.61; IP-10 fold-change (preproinsulin peptides) [2, 15]: 1.61 fold; IL-2 fold-change ([3]; Subject 1): 1.00; IL-2 fold-change (preproinsulin peptides) ([3]; Subject 1): 1.00 fold; IL-2 fold-change ([3]; Subject 2): 1.00; IL-2 fold-change (preproinsulin peptides) ([3]; Subject 2): 1.00 fold; IL-2 fold-change ([3]; Subject 6): 1.00; IL-2 fold-change (preproinsulin peptides) ([3]; Subject 6): 1.00 fold; IL-2 fold-change ([3]; Subject 7): 7.35; IL-2 fold-change (preproinsulin peptides) ([3]; Subject 7): 7.35 fold
